Common to all, as to assay type: biochemical
Common to all, as to details: HeLa S3 lysate, 2 hrs at 30° C.

The subject of one assay is MYC. Put plainly: In vitro transcription-translation (IVTT) assay, MYC reporter. From the text:
(§1) All reporter constructs have been cloned into the pT7CFE1-CHis plasmid (ThermoFisher #88860) using Gibson assembly procedures (NEB #E2611L). The parental pT7CFE1-CHis plasmid contains an EMCV IRES at the 5′UTR for translation initiation, a multiple-cloning site (MCS) for gene insertion, an optional C-terminal His-epitope tag, and polyA sequence in the 3′UTR to regulate mRNA stability. All reporters are designed to be inserted at the MCS to include a red fluorescent protein (mCherry), P2A self-cleaving peptide which releases the preceding mCherry protein product, and a fusion open reading frame containing a 3×FLAG epitope, a peptide sequence of interest (TEST), and green fluorescent protein (sfGFP).
(§2) Construct Plasmid Preparation: All plasmids are isolated from MACH1 cells (ThermoFisher) grown overnight in ampicillin-containing luria broth, and purified using ZymoPure Express Plasmid Midiprep Kit (Zymo Research). Constructs are sequenced verified and diluted to a working concentration of 110 ng/μL.
(§3) HeLa S3 Lysate Preparation: HeLa S3 cell pellets are acquired from Ipracell/Ipratech (Belgium) and shipped as 4 mL frozen cell pellets on dry ice for storage at −80° C. until use. The procedure for lysate preparation is as follows. Prepare 1× Lysis Buffer, cold and stored on ice:
(§4) Each preparation takes 8 cell pellets (4 ml packed volume each, approximately 1.0×10^9 cells per pellet). Thaw cell pellets from −80° C. on ice for 90 mins. Lay pellets horizontally on top of the ice and rotate every 30 mins to ensure even thawing. Once thawed, add 4 mL of cold lysis buffer to each pellet, and using a serological pipet, gently pipet up and down to break up clumps. Incubate resuspended cells in ice for an additional 30 mins (plunged into ice). During 30 min incubation, rinse and RNase-zap (Ambion) glass dounces (use loose pestle “A”), gently dry and place on ice until needed. Prepare RNase-free Eppendorf tubes for spinning and for batch storage. Add batch labels to 1.5-1.7 mL RNase-free microcentrifuge tubes (labeling scheme below). Each batch will have an extra 1.5-1.7 mL RNase-free microcentrifuge tube for 40 μL of lysate, label the top of this tube (labeling scheme below). After 30 min incubation, transfer all 8 mL of cell pellet to dounce. Cell lysis is complete after douncing 100 times. Aliquot cell lysis into 1.5-1.7 mL temporary-microcentrifuge tubes. Place tubes in centrifuge with “fins” out, and spin at 1,200×g for 5 mins. After the first spin use a 1 mL pipet to resuspend each tube and repeat spin. This acts as an additional lysis step, is more vigorous and increases lysate yield. During second spin get liquid N2 and a fresh conical tube on ice. After spin is complete, transfer supernatant (lysate) from microcentrifuge tubes into the 50 mL conical tube and keep on ice. Repeat steps 10-14 for all other cell pellets until completed. Once all cell lysate has been transferred to the 50 mL conical tube pipet to mix so the solution is homogenous. Transfer 1 mL of lysate into batch-labeled microcentrifuge tubes and flash freeze in liquid nitrogen. Be sure to pipet up and down to mix throughout transfer step. Place all tubes in the […] for long-term storage.
(§5) In vitro transcription-translation assay setup: Each assay includes a master mix containing lysate and shared components, a 96-well plate containing compound titrations for testing, a 96-well DNA plate with reporter constructs to be tested, 96-well skirted PCR plates, and 96-well flat-bottom, black, fluorescent assay plates. […]

Another assay relates to CCND1. Put plainly: In vitro transcription-translation (IVTT) assay, CCND1 reporter.
Text: as §1, §2, §3, §4, §5

A further assay concerns MCL-1. Put plainly: In vitro transcription-translation (IVTT) assay, MCL-1 reporter.
Text: as §1, §2, §3, §4, §5

The next assay relates to CCNTB1. Put plainly: In vitro transcription-translation (IVTT) assay, CCNTB1 reporter. On the procedure:
as §4
In vitro transcription-translation assay setup: Each assay includes a master mix containing lysate and shared components, a 96-well plate containing compound titrations for testing, a 96-well DNA plate with reporter constructs to be tested, 96-well skirted PCR plates, and 96-well flat-bottom, black, fluorescent assay plates. Reaction materials setup: (A) Master mix—15 mL conical tube (3 mL of HeLa S3 Lysate described above; 0.6 mL of ThermoFisher Accessory Proteins (#88882); 1.2 ml of ThermoFisher Reaction Mix (#88882); 0.54 mL of nuclease-free Water); (B) 96-Well Master Mix+Compound Plate (Half-log dilutions (30 μM−0.1 μM) of 4 compounds of interest are prepared in 100% DMSO); 96-Well DNA Plate (Five DNA constructs are plated into single columns within the plate. Row 1 of the column contains nuclease free H2O, all other wells contain 110 ng/μL plasmid DNA). Reactions are started by mixing 155 μL of master mix and 3.5 μL of compound serial dilutions, then 9.1 μL of master mix+compound mixture is aliquoted across 5 96-well plates. Reactions begin with final addition of 2 μL of DNA for a 11.1 μL reaction volume in each well. The entire plate is sealed, and incubated for 2 hrs at 30° C. After 2 hrs, quench the assay using 45 μL of PBS, and transfer 50 μL to a flat-bottom black microplate Quantify the sfGFP and mCherry signals from each well on each plate, taking 3 reads of each plate, and perform data analysis below.
In vitro transcription-translation assay data analysis: Each plate is read three times in channels for both sfGFP and mCherry signals. The average signal across these 3 reads is then calculated for further analysis. Control wells containing no DNA reporter are subtracted from reporter wells in the same column to remove auto-fluorescence of the lysate. Then, the ratio of sfGFP/mCherry is calculated per well, and these ratios are averaged across the triplicate experiments on the same plate. Finally, the ratio of each titration concentration is normalized to the no drug control to create the normalized stalling metric. […]

Where [1] appears, read: IVTT assay, MYC reporter, normalized sfGFP/mCherry ratio, half-log dilutions 30 μM-0.1 μM.

SMILES strings stand for the structures. Like-named read-outs stand apart in the source and are kept apart here.

By IC50 is commonly meant the concentration that gives 50% inhibition.

As for `COc1ccc(C[C@H]2NC[C@H](O)[C@H]2OC(=O)NCC2(F)CC2)cc1` [V188381, (2R,3S,4S)-4-hydroxy-2-[(4-methoxyphenyl)methyl]pyrrolidin-3-yl N-[(1-fluorocyclopropyl)methyl]carbamate], the IC50 in the assay with MYC (setting [1]) was below 10 µM; in the assay on CCND1 (IVTT) it was 10 to 20 µM; in the assay on MCL-1 (IVTT, read-out: MCL1 IC50), below 10 µM; in the assay on CCNTB1, below 10 µM.
For the compound `COc1ccc(C[C@H]2NC[C@H](O)[C@H]2OC(=O)NCc2c(F)cccc2F)cc1` [V190521, (2R,3S,4S)-4-hydroxy-2-[(4-methoxyphenyl)methyl]pyrrolidin-3-yl N-[(2,6-difluorophenyl)methyl]carbamate], the IC50 in the assay with MYC (setting [1]) was 20 to 30 µM; in the assay on CCND1 (IVTT) it was above 30 µM; in the assay on MCL-1 (IVTT, read-out: MCL1 IC50) it was 20 to 30 µM; in the assay on CCNTB1 it was 10 to 20 µM.
Consider `COc1ccc(C[C@H]2NC[C@H](O)[C@H]2OC(=O)NCc2ccccc2F)cc1` [V190520, (2R,3S,4S)-4-hydroxy-2-[(4-methoxyphenyl)methyl]pyrrolidin-3-yl N-[(2-fluorophenyl)methyl]carbamate], for which the IC50 in the assay with MYC (setting [1]) was below 10 µM; in the assay with CCND1 (IVTT) it was 10 to 20 µM; with MCL-1 (IVTT, read-out: MCL1 IC50), below 10 µM; in the assay on CCNTB1, below 10 µM.
Consider `COc1ccc(C[C@H]2NC[C@H](O)[C@H]2OC(=O)NCC(=O)NCC(=O)O)cc1` [V188018, {2-[({[(2R,3S,4S)-4-hydroxy-2-[(4-methoxyphenyl)methyl]pyrrolidin-3-yl]oxy}carbonyl)amino]acetamido}acetic Acid], for which the IC50 is 10 to 20 µM in the assay with MYC (setting [1]); above 30 µM in the assay with CCND1 (IVTT); above 30 µM in the assay on MCL-1 (IVTT, read-out: MCL1 IC50); above 30 µM with CCNTB1.
In the case of `O=C(NCC[C@@H]1CCCN1)O[C@@H]1[C@@H](O)CN[C@@H]1Cc1ccc(-c2ccc(S(F)(F)(F)(F)F)cc2)cc1` [V191968, (2R,3S,4S)-4-hydroxy-2-((4′-(pentafluoro-l6-sulfanyl)-[1,1′-biphenyl]-4-yl)methyl)pyrrolidin-3-yl (2-((S)-pyrrolidin-2-yl)ethyl)carbamate], the IC50 in the assay on MYC (setting [1]) and in the assay on CCNTB1 was above 30 µM throughout.
Regarding `COc1ccc(C[C@H]2NC[C@H](O)[C@H]2OC(=O)NCc2ccc(C3CC3)cc2)cc1` [V188321, (2R,3S,4S)-4-hydroxy-2-[(4-methoxyphenyl)methyl]pyrrolidin-3-yl N-[(4-cyclopropylphenyl)methyl]carbamate], the IC50 in the assay on MYC (setting [1]) is above 30 µM; in the assay on CCND1 (IVTT), above 30 µM; with MCL-1 (IVTT, read-out: MCL1 IC50) it was 10 to 20 µM; with CCNTB1, 10 to 20 µM.
Regarding `COc1ccc(C[C@H]2NC[C@H](O)[C@H]2OC(=O)NCc2ccnc(F)c2)cc1` [V190522, (2R,3S,4S)-4-hydroxy-2-[(4-methoxyphenyl)methyl]pyrrolidin-3-yl N-[(2-fluoropyridin-4-yl)methyl]carbamate], the IC50 in the assay with MYC (setting [1]) was below 10 µM; in the assay on CCND1 (IVTT) it was below 10 µM; in the assay on MCL-1 (IVTT, read-out: MCL1 IC50), below 10 µM; in the assay on CCNTB1, below 10 µM.
With `COc1ccc(C[C@H]2NC[C@H](O)[C@H]2OC(=O)NCCn2ccnc2C)cc1` [V188087, (2R,3S,4S)-4-hydroxy-2-[(4-methoxyphenyl)methyl]pyrrolidin-3-yl N-[2-(2-methylimidazol-1-yl)ethyl]carbamate], the IC50 in the assay with MYC (sfGFP/mCherry ratio) was 10 to 20 µM; in the assay on CCND1 (sfGFP/mCherry ratio), 20 to 30 µM; in the assay on MCL-1 (sfGFP/mCherry ratio) it was below 10 µM.
On the same counts, the results for `COc1ccc(C[C@H]2NC[C@H](O)[C@H]2NC(=O)OCc2ccccc2)cc1` [Cmpd V187864] are above 30 µM, above 30 µM and above 30 µM.
In the case of `O=C(NCCc1ccncc1)O[C@@H]1[C@@H](O)CN[C@@H]1Cc1ccc(-c2cn(-c3ccc(Cl)cc3)nn2)cc1` [V187950, (2R,3S,4S)-2-({4-[1-(4-chlorophenyl)-1,2,3-triazol-4-yl]phenyl}methyl)-4-hydroxypyrrolidin-3-yl N-[2-(pyridin-4-yl)ethyl]carbamate], the IC50 is 10 to 20 µM in the assay with MYC (sfGFP/mCherry ratio), below 10 µM with CCND1 (sfGFP/mCherry ratio) and below 10 µM with MCL-1 (sfGFP/mCherry ratio).
`COc1ccc(C[C@H]2NC[C@H](O)[C@H]2OC(=O)NC[C@H]2CNC[C@@H]2O)cc1` [V188114, (2R,3S,4S)-4-hydroxy-2-[(4-methoxyphenyl)methyl]pyrrolidin-3-yl N-{[(3R,4R)-4-hydroxypyrrolidin-3-yl]methyl}carbamate]: the results for the IC50 with MYC (sfGFP/mCherry ratio), in the assay with CCND1 (sfGFP/mCherry ratio) and with MCL-1 (sfGFP/mCherry ratio) were 20 to 30 µM, above 30 µM and 10 to 20 µM, respectively.
As to `COc1ccc(C[C@H]2NC[C@H](O)[C@H]2OC(=O)NCCN[C@@H]2CCNC2)cc1` [V188073, (2R,3S,4S)-4-hydroxy-2-[(4-methoxyphenyl)methyl]pyrrolidin-3-yl N-{2-[(3R)-pyrrolidin-3-ylamino]ethyl}carbamate], the results for the IC50 in the assay on MYC (sfGFP/mCherry ratio), with CCND1 (sfGFP/mCherry ratio) and in the assay with MCL-1 (sfGFP/mCherry ratio) were 10 to 20 µM, 20 to 30 µM and 10 to 20 µM, respectively.
Take `COc1ccc(C[C@H]2NC[C@H](O)[C@H]2OC(=O)NC[C@H]2CNC[C@H]2O)cc1` [V188115, (2R,3S,4S)-4-hydroxy-2-[(4-methoxyphenyl)methyl]pyrrolidin-3-yl N-{[(3R,4S)-4-hydroxypyrrolidin-3-yl]methyl}carbamate]: the IC50 with MYC (sfGFP/mCherry ratio) was above 30 µM; in the assay with CCND1 (sfGFP/mCherry ratio), above 30 µM; in the assay on MCL-1 (sfGFP/mCherry ratio), 10 to 20 µM.
Turning to `COc1ccc(C[C@H]2NC[C@H](O)[C@H]2OC(=O)NCC(N)=O)cc1` [V188002, (2R,3S,4S)-4-hydroxy-2-[(4-methoxyphenyl)methyl]pyrrolidin-3-yl N-(carbamoylmethyl)carbamate], the IC50 was 20 to 30 µM in the assay with MYC (sfGFP/mCherry ratio), below 10 µM in the assay with CCND1 (sfGFP/mCherry ratio) and below 10 µM with MCL-1 (sfGFP/mCherry ratio).
Take `COc1ccc(C[C@H]2NC[C@H](O)[C@H]2OC(=O)NCC2CC(F)(F)C2)cc1` [V187862, (2R,3S,4S)-4-hydroxy-2-[(4-methoxyphenyl)methyl]pyrrolidin-3-yl N-[(3,3-difluorocyclobutyl)methyl]carbamate]: the IC50 in the assay on MYC (sfGFP/mCherry ratio), in the assay on CCND1 (sfGFP/mCherry ratio) and in the assay with MCL-1 (sfGFP/mCherry ratio) was below 10 µM throughout.
Take `[H]/N=C(\N)CNC(=O)O[C@@H]1[C@@H](O)CN[C@@H]1Cc1ccc(OC)cc1` [Cmpd V187993]: the IC50 in the assay on MYC (sfGFP/mCherry ratio), in the assay on CCND1 (sfGFP/mCherry ratio) and with MCL-1 (sfGFP/mCherry ratio) was 10 to 20 µM each time.

(Values after patent US20250129021A1, “SMALL MOLECULE PROTEIN SYNTHESIS MODULATORS” (Interdict Bio, Inc., priority 2023, published 2025).)
